# Data as given in patent US20140187556A1, “ANTI-AMYLOID COMPOUNDS AND METHODS” (Treventis Corporation, priority 2011, published 2014).
# Legend:
# Aβ40 = molecular target: T1, Aβ40 (Homo sapiens, UniProt P05067); test: Thioflavin T (ThT) Aβ aggregation assay; type: biochemical; conditions: for IC50: 20 μM Aβ40, 37 degrees C; for inhibition at 50 µM: 50 μM compound
# T1 construct: pre-treated Aβ40 (40 μM in 20 mM Tris, pH 7.4)
# Experimental: Aβ40 (1.0 mg) was pre-treated in a 1.5 mL microfuge tube with HFIP (1 mL) and sonicated for 20 min to disassemble any pre-formed Aβ aggregates. The HFIP was removed with a stream of argon and the Aβ dissolved in Tris base (5.8 mL, 20 mM, pH ˜10). The pH was adjusted to 7.4 with concentrated HCl (−10 μL) and the solution filtered using a syringe filter (0.2 μm) before being used.
# The kinetic ThT assay for Aβ aggregation is similar to that of Chalifour et al (Chalifour et al, 2003, J. Biol. Chem. 278:34874-81). Briefly, pre-treated Aβ40 (40 μM in 20 mM Tris, pH 7.4), was diluted with an equal volume of 8 μM ThT in Tris (20 mM, pH 7.4, 300 mM NaCl). Aliquots of Aβ/ThT (200 μL) were added to wells of a black polystyrene 96-well plate, followed by 2 μL of a compound in DMSO (variable concentration), or DMSO alone (controls). Incubations were performed in triplicate and were taken to contain 20 μM Aβ, various concentration of compound in 20 mM Tris, pH 7.4, 150 mM NaCl, 1% DMSO. Plates were covered with clear polystyrene lids and incubated at 37 degrees C. in a Tecan Genios microplate reader. Fluorescence readings (λex=450 nm, λem=480 nm) were taken every 15 min., after first shaking at high intensity for 15 s and allowing to settle for 10 s before each reading. Active compounds attenuated the increase in fluorescence over time that occurred in controls.
# [1] = Metabolic stability in mouse liver microsomes; type: in vitro ADME; conditions: 1 μM compound, 0.5 mg/mL microsomal protein, 1 mM NADPH
# Experimental: This assay is used to determine the percent remaining and intrinsic clearance of a test compound incubated with pooled mouse liver microsomes in the presence of NADPH. Further details on this method may be found in Jeffrey P, et al., Utility of metabolic stability screening: comparison of in vitro and in vivo clearance. enobiotica. 2001 August-September; 31(8-9):591-8 and Lin J H, et al., Role of pharmacokinetics and metabolism in drug discovery and development. Pharmacol Rev. 1997; 49(4):403-49; each of which is hereby incorporated by reference. Test compound was formulated in 300 μL of DMSO at 10 mM and was diluted to 1 μM with final concentration of organic solvent <0.25% for the experiment. Pooled liver microsomes were prepared from male mice, with 1 mM NADPH. Test compound was incubated at 37 degrees Celsius in buffer containing 0.5 mg/mL microsomal protein; the reaction was initiated by adding cofactors and sampled at 0, 10, 20, 30, and 60 minutes. A positive control (5 μM testosterone) was incubated and initiated in parallel for quality control. Samples were analyzed using an LTQ-Orbitrap XL mass spectrometer; HRMS was used to determine the peak area response ratio (peak area corresponding to test compound or control divided by that of an analytical internal standard) without running a standard curve.
# Results were reported for selected compounds in the table of Example 1, as % test compound remaining after 60 minutes. Compounds which have less than about 5% remaining are not considered to be metabolically stable in mouse liver microsomes, while compounds with more than about 5% remaining are considered to be metabolically stable in mouse liver microsomes.
# T1 sequence (P05067 672-711 limits assumed): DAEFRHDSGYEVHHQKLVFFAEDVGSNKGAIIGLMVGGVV
IC50 (Aβ40) [µM],Stability in mouse liver microsomes (% test compound remaining after 60 min) [1] [%],inhibition at 50 µM (Aβ40) [%],SMILES
24.6 ± 6.83,<1.0,–,"NS(=O)(=O)c1ccccc1-c1ccc([N+](=O)[O-])c(NCc2ccccc2)c1 [TRV 1121, 3′-(benzylamino)-4′-nitro-[1,1′-biphenyl]-2-sulfonamide]"
6.49 ± 0.21,<1.0,–,"CC(O)c1cccc(-c2ccc([N+](=O)[O-])c(NCc3ccccc3)c2)c1 (stereo not drawn) [TRV 1129, 1-(3′-(benzylamino)-4′-nitrobiphenyl-3-yl)ethanol]"
2.94 ± 1.64,<1.0,–,"O=C(c1cccc(-c2ccc([N+](=O)[O-])c(NCc3ccccc3)c2)c1)N1CCCC1 [TRV 1117, (3′-(benzylamino)-4′-nitrobiphenyl-3-yl)(pyrrolidin-1-yl)methanone]"
3.54 ± 0.46,<1.0,–,O=[N+]([O-])c1ccc(-c2cccc(CO)c2)cc1NCc1ccccc1 [TRV 1147]
~50,–,–,"O=C(c1ccccc1)N1CCN(c2cc(F)c(F)c(NCc3ccccc3)c2)CC1 [TRV 1190, (4-(3-(benzylamino)-4,5-difluorophenyl)piperazin-1-yl)(phenyl)methanone]"
6.47 ± 4.92,–,–,"CN(Cc1ccccc1)C(=O)c1cccc(-c2ccc([N+](=O)[O-])c(NCc3ccccc3)c2)c1 [TRV 1118, N-benzyl-3′-(benzylamino)-N-methyl-4′-nitrobiphenyl-3-carboxamide]"
> 50,–,–,"CC(C)Nc1cc(N2CCN(C(=O)c3ccccc3)CC2)cc(F)c1C(F)(F)F [TRV 1176, (4-(3-fluoro-5-(isopropylamino)-4-(trifluoromethyl)phenyl)piperazin-1-yl)(phenyl)methanone]"
> 50,–,–,"O=C(c1ccccc1)N1CCN(c2ccc(S(=O)(=O)C(F)(F)F)c(NCc3ccccc3)c2)CC1 [TRV 1186, (4-(3-(benzylamino)-4-((trifluoromethyl)sulfonyl)phenyl)piperazin-1-yl)(phenyl)methanone]"
> 50,–,–,"N#Cc1cccc(-c2ccc([N+](=O)[O-])c(NCc3ccccc3)c2)c1 [TRV 1136, 3′-(benzylamino)-4′-nitrobiphenyl-3-carbonitrile]"
~10,<1.0,–,"O=C(c1ccccc1)N1CCN(c2ccc([N+](=O)[O-])c(N3CCCC3)c2)CC1 [TRV 1141, (4-(4-nitro-3-(pyrrolidin-1-yl)phenyl)piperazin-1-yl)(phenyl)methanone]"
4.11 ± 1.2,<1.0,–,"CN(C)C(=O)c1cccc(-c2ccc([N+](=O)[O-])c(NCc3ccccc3)c2)c1 [TRV 1102, 3′-(benzylamino)-N,N-dimethyl-4′-nitrobiphenyl-3-carboxamide]"
> 10,–,–,"O=C(c1ccccc1)N1CCN(c2ccc([N+](=O)[O-])c(N3CCOCC3)c2)CC1 [TRV 1138, (4-(3-morpholino-4-nitrophenyl)piperazin-1-yl)(phenyl)methanone]"
~50,–,47.9,CC(O)c1cccc(-c2ccc(C#N)c(N3CCCC3)c2)c1 (stereo not drawn) [TRV 1248]
> 50,–,–,"CNC(=O)c1cccc(-c2ccc([N+](=O)[O-])c(NCc3ccccc3)c2)c1 [TRV 1101, 3′-(benzylamino)-N-methyl-4′-nitrobiphenyl-3-carboxamide]"
0.33 ± 0.44,<1.0,–,"O=C(c1cccc(-c2ccc([N+](=O)[O-])c(NCc3ccccc3)c2)c1)N1CCCCC1 [TRV 1111, (3′-(benzyl amino)-4′-nitrobiphenyl-3-yl)(piperidin-1-yl)methanone]"
7.08 ± 0.19,–,–,"O=[N+]([O-])c1ccc(-c2cccc(C(O)(O)C(F)(F)F)c2)cc1NCc1ccccc1 [TRV 1153, 1-(3′-(benzylamino)-4′-nitro-[1,1′-biphenyl]-3-yl)-2,2,2-trifluoroethane-1,1-diol]"

IC50 (Aβ40) [µM],Stability in mouse liver microsomes (% test compound remaining after 60 min) [1] [%],inhibition at 50 µM (Aβ40) [%],SMILES
12.5 ± 2.79,–,–,"O=[N+]([O-])c1ccc(-c2ccccc2-c2nnn[nH]2)cc1NCc1ccccc1 [TRV 1125, N-benzyl-4-nitro-2′-(1H-tetrazol-5-yl)-[1,1′-biphenyl]-3-amine]"
~10,1.7,–,"O=C(c1ccccc1)N1CCN(c2ccc([N+](=O)[O-])c(NC3CC3)c2)CC1 [TRV 1142, (4-(3-(cyclopropylamino)-4-nitrophenyl)piperazin-1-yl)(phenyl)methanone]"
> 50,–,–,"O=C(O)c1cccc(-c2ccc(Cl)c(Nc3ccccc3)c2)c1 [TRV 1097, 4′-chloro-3′-(phenylamino)-[1,1′-biphenyl]-3-carboxylic acid]"
> 50,–,–,"O=C(c1cccc(-c2ccc([N+](=O)[O-])c(NCc3ccccc3)c2)c1)N1CCOCC1 [TRV 1113, (3′-(benzyl amino)-4′-nitrobiphenyl-3-yl)(morpholino)methanone]"
10.7 ± 0.54,–,–,"CN(C)C(=O)C1CCN(c2ccc([N+](=O)[O-])c(NCc3ccccc3)c2)CC1 [TRV 1134, 1-(3-(benzylamino)-4-nitrophenyl)-N,N-dimethylpiperidine-4-carboxamide]"
17.9 ± 13.3,–,–,"O=C(C1CCN(c2ccc([N+](=O)[O-])c(NCc3ccccc3)c2)CC1)N1CCCC1 [TRV 1133, (1-(3-(benzyl amino)-4-nitrophenyl)piperidin-4-yl)(pyrrolidin-1-yl)methanone]"
> 50,–,–,"CCCN(CCC)C(=O)c1cccc(-c2ccc([N+](=O)[O-])c(NCc3ccccc3)c2)c1 [TRV 1130, 3′-(benzylamino)-4′-nitro-N,N-dipropylbiphenyl-3-carboxamide]"
> 50,–,–,"O=C(c1ccccc1)N1CCN(c2ccc(-n3cnnn3)c(N3CCCC3)c2)CC1 [TRV 1164, phenyl(4-(3-(pyrrolidin-1-yl)-4-(1H-tetrazol-1-yl)phenyl)piperazin-1-yl)methanone]"
0.7 ± 0.9,<1.0,–,"CCN(CC)C(=O)c1cccc(-c2ccc([N+](=O)[O-])c(NCc3ccccc3)c2)c1 [TRV 1110, 3′-(benzylamino)-N,N-diethyl-4′-nitrobiphenyl-3-carboxamide]"
6.49 ± 2.5,–,–,"CC(=O)c1cccc(-c2ccc([N+](=O)[O-])c(NCc3ccccc3)c2)c1 [TRV 1124, 1-(3′-(benzylamino)-4′-nitrobiphenyl-3-yl)ethanone]"
< 50,–,56.8,CC(O)c1cccc(-c2ccc(F)c(N3CCCC3)c2)c1 (stereo not drawn) [TRV 1246]
> 50,–,–,"O=C(c1ccccc1)N1CCN(c2ccc(-n3cnnn3)c(NCc3ccccc3)c2)CC1 [TRV 1178, (4-(3-(benzylamino)-4-(1H-tetrazol-1-yl)phenyl)piperazin-1-yl)(phenyl)methanone]"
2.67 ± 0.1,<1.0,–,"CN1CCN(C(=O)c2cccc(-c3ccc([N+](=O)[O-])c(NCc4ccccc4)c3)c2)CC1 [TRV 1115, (3′-(benzyl amino)-4′-nitrobiphenyl-3-yl)(4-methylpiperazin-1-yl)methanone]"
> 50,–,–,"O=C(c1ccccc1)N1CCN(c2ccc(F)c(N3CCCC3)c2)CC1 [TRV 1162, (4-(4-fluoro-3-(pyrrolidin-1-yl)phenyl)piperazin-1-yl)(phenyl)methanone]"
> 50,–,–,"CC(C)Nc1cc(N2CCN(C(=O)c3ccccc3)CC2)cc(C(F)(F)F)c1 [TRV 1169, (4-(3-(isopropylamino)-5-(trifluoromethyl)phenyl)piperazin-1-yl)(phenyl)methanone]"
1.41 ± 1.11,<1.0,–,"CC(C)N(C(=O)c1cccc(-c2ccc([N+](=O)[O-])c(NCc3ccccc3)c2)c1)C(C)C [TRV 1112, 3′-(benzylamino)-N,N-diisopropyl-4′-nitrobiphenyl-3-carboxamide]"
